Experimental data: publication PMC8728441, “Biosynthesis of the redox cofactor mycofactocin is controlled by the transcriptional regulator MftR and induced by long-chain acyl-CoA species” (The Journal of Biological Chemistry, 2021)

Key:
[1] = tested on: MftR D16R–Omft complex; assay: Competitive EMSA with D16R mutant and oleoyl-CoA; assay type: binding, Mycobacterium smegmatis mc^2155; conditions: up to 100 μM oleoyl-CoA
Excerpt: Next, we examined which amino acid residues contribute to the interaction between MftR and oleoyl-CoA. The crystal structure of Msmeg MftR is currently unavailable; however, an unpublished structure of Rhodococcus jostii RHA1 MftR has been deposited in the Protein Data Bank (PDB) (PDB ID: 2RAE, 54% identical, Fig. S3). Using this structure, we employed SwissDock to model oleoyl-CoA bound to MftR (Fig. 5) ([41], [42]). From the docked structure, we identified eight conserved residues on MftR that were expected to create the acyl-binding pocket or bind CoA through electrostatic interactions. Following single amino acid replacements of the residues, we measured the Kd values of the mutant proteins to oleoyl-CoA using ITC. For the putative acyl-binding pocket residues Phe65, Phe96, and Ile114, mutations to alanine led to no or modest change to the Kd for oleoyl-CoA (Table 1). […] Conversely, when His68 was mutated to alanine, binding of oleoyl-CoA by the protein was undetectable. To validate this observation, competitive EMSAs were carried out using the H68A mutant. […] Thus, it is highly likely that His68 is an important residue for oleoyl-CoA binding. To evaluate residues that were expected to interact with CoA, Gln15, Asp16, Ser67, and Asp66 were targeted. Of these, mutants of Asp16 and Ser67 had the greatest effect (Table 1). […]

[2] = target: T1, MftR L120A (Mycolicibacterium smegmatis, UniProt A0QSB5, L120A); assay: ITC binding of oleoyl-CoA to MftR variant; design: species or system Mycobacterium smegmatis mc^2155
T1 sequence (A0QSB5 1-200 L120A): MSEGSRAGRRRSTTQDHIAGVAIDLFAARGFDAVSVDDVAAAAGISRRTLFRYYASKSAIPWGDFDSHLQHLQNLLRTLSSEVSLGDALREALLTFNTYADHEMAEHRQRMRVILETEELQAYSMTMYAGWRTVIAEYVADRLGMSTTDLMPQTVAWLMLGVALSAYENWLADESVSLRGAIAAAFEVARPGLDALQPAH

Q: `CCCCCCCC/C=C\CCCCCCCC(=O)SCCNC(=O)CCNC(=O)[C@H](O)C(C)(C)COP(=O)(O)OP(=O)(O)OC[C@H]1O[C@@H](n2cnc3c(N)ncnc32)[C@H](O)[C@@H]1OP(=O)(O)O` [oleoyl-CoA] was tested. Which “release of Omft from D16R mutant” value [1] did it give?
A: remained bound to Omft

Q: And the Kd [2]?
A: 5.2 ± 0.2 µM
